Reference: publication PMC5983644, “Expression and Interaction Analysis among Saffron ALDHs and Crocetin Dialdehyde” (International Journal of Molecular Sciences, 2018)

Target: T1, ALDH20158 (Crocus sativus, UniProt A0A3G1GZK3)
T1 sequence (A0A3G1GZK3 31-535): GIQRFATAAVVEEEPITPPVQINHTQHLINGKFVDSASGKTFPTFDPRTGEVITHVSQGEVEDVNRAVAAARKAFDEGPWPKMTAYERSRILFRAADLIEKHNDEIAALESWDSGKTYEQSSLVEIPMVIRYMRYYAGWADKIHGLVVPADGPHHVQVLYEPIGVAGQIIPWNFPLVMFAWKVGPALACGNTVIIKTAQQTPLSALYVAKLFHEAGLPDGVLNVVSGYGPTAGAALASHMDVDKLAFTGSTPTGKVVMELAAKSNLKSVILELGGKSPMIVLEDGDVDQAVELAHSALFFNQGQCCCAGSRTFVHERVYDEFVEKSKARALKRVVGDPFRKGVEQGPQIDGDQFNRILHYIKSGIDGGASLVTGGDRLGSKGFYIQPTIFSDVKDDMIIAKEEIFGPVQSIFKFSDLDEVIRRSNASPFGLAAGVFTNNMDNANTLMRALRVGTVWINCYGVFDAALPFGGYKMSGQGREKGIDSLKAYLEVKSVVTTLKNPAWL
Test: LC-APCI(+)-MS of crocetin formed by crude extract of E. coli expressing the enzyme
Type: biochemical
Settings: NAD+, pyrophosphate buffer, NaCl, pH 7.5, 28 C, 30 min; empty-vector extract as control

## C\C(C=O)=C/C=C/C(C)=C/C=C/C=C(C)/C=C/C=C(\C)C=O [crocetin dialdehyde]
  LC-APCI(+)-MS of crocetin formed by crude extract of E. coli expressing the enzy: the same results were obtained using ALDH20158 and ALDH3898
